Where “and” joins values, the source holds several entries; their conditions need not be identical. Equal entries are not always repeated. Where two headings read alike, the source gives them in different places.
What was measured:
[1] = Liver Microsome Stability Assay (monkey); conditions: monkey liver microsomes, with NADPH, 1.0 uM compound
Method: (§3) Stability of a compound was assessed in the presence of liver microsomes from various sources—mouse, rat, monkey and human liver microsomes. 1.0 uM compound, 0.4% DMSO in 0.1 M Potassium Phosphate with 1.0 mg/mL liver microsomes, were incubated at 37° C. with or without 1 mM NADPH. The samples were quenched at 0, and 30 minutes.

[2] = test system: multiple myeloma cell line NCI-H929; assay: H929 Cell Viability Assay; format: cell-based, human; conditions: NCI-H929 cells, Celltiter-Glo
Method: The human multiple myeloma cell line NCI-H929 was cultured in Advanced RPMI 1640 media (Gibco®) supplemented with 6% fetal bovine serum, 2 mM Glutamine, and 1× Penicillin/Streptomycin. On the day of assay, cells were resuspended in RPMI 1640 media supplemented with 10% fetal bovine serum, 2 mM Glutamine, and 1× Penicillin/Streptomycin and plated in 384-well tissue culture plates and treated with compound dilutions in DMSO/media. Plates were incubated at 37° C., 5% CO2 for 48 hours. After 48 hours, Celltiter-Glo® (Promega) was added to each well and luciferase signal was quantified using Tecan Infinite M1000 Pro for cell viability determination.
(§1) For chemical structures that include one or more stereoisomers, but are illustrated without indicating stereochemistry, the assay data refers to a mixture of stereoisomers.

[3] = Liver Microsome Stability Assay (mouse); conditions: mouse liver microsomes, with NADPH, 1.0 uM compound
Method: as §3

[4] = Liver Microsome Stability Assay (human); conditions: human liver microsomes, with NADPH, 1.0 uM compound
Method: as §3

[5] = test system: IL-2-FL/Gaussia Luciferase; assay: Dox Induced IL2-FL-Gluc Assay; format: cell-based; conditions: for IC50: 24 hr Dox induction, 293FRT/TO cells, read-out: 24 hr Dox Inducible IL2FLGluc 293FRT/TO: Mean IC50; for 24 hr Dox Inducible IL2FLGluc 293FRT/TO: IL2/PD1: ratio of IL2FLGluc IC50 to PD1ssGluc IC50
Text: (§2) Flp-In 293 T-REx™ cells were transfected with pcDNA™5/FRT/TO plasmid inserted with cDNA encoding Gaussia Luciferase fused to the 3′ end of cDNA encoding full length IL-2 (amino acids 1-153). Transfected cells were selected for resistance to the selectable markers Hygromycin and Blasticidin to create a stable cell line that contained the IL-2-FL/Gaussia Luciferase cDNA insert whose expression was regulated under the T-REx™ system. The day before assay, cells were trypsinized and plated in 384-well tissue culture plates. The next day, compound dilutions in DMSO/media containing doxycycline were added to the wells and incubated at 37° C., 5% CO2.
as §1

[6] = test system: multiple myeloma cell line U266B1; assay: U266 Cell Viability Assay; format: cell-based, human; conditions: Homo sapiens, U-266, 48 h, U266B1 cells, Celltiter-Glo
Method: The human multiple myeloma cell line U266B1 was cultured in RPMI 1640 media supplemented with 10% fetal bovine serum, 2 mM Glutamine, and 1× Penicillin/Streptomycin. Cells were plated in 384-well tissue culture plates and treated with compound dilutions in DMSO/media. Plates were incubated at 37° C., 5% CO2 for 48 hours. After 48 hours, Celltiter-Glo® (Promega) was added to each well and luciferase signal was quantified using Tecan Infinite M1000 Pro for cell viability determination.
as §1

[7] = Liver Microsome Stability Assay (rat); conditions: rat liver microsomes, with NADPH, 1.0 uM compound
Method: as §3

[8] = test system: PD1-ss+10aa/Gaussia Luciferase; assay: Dox-Induced PD1-ss-Gluc Assay; format: cell-based; conditions: 24 hr Dox induction, 293FRT/TO cells, read-out: 24 hr Dox Inducible PD1ssGluc 293FRT/TO: Mean IC50
Text: as §2, with “PD1 signal sequence plus 10 amino” for “full length IL-2 (amino”, “(N-[…]-C) (SEQ ID NO: 1).” for “1-153).”, “PD1-ss+10aa/Gaussia” for “IL-2-FL/Gaussia”
as §1

[9] = test system: TNFα-FL/Gaussia Luciferase; assay: Dox Induced TNFα-FL-Gluc Assay; format: cell-based
Text: as §2, with “TNFα” for “IL-2”, “1-233).” for “1-153).”, “TNFα-FL/Gaussia” for “IL-2-FL/Gaussia”
as §1

[10] = '<=>' given where both are I.A.

Row | Compound | Liver Microsome Stability (Multiple Species): Monkey - % Remaining after 30 min w/NADPH [1] | EC50 ([2]; Homo sapiens, NCI-H929, 48 h) | Liver Microsome Stability (Multiple Species): Mouse - % Remaining after 30 min w/NADPH [3] | Liver Microsome Stability (Multiple Species): Human - % Remaining after 30 min w/NADPH [4] | IC50 [5] | EC50 [6] | Liver Microsome Stability (Multiple Species): Rat - % Remaining after 30 min w/NADPH [7] | IC50 [8] | IC50 ([5]; mean) | IC50 ([8]; mean) | EC50 ([2]; 48 hr) | IC50 ([9]; 24 hr Dox induction, 293FRT/TO cells, mean, read-out: 24 hr Dox Inducible TNFaFLGluc 293FRT/TO: Mean IC50) | 24 hr Dox Inducible IL2FLGluc 293FRT/TO: IL2/PD1 [5] | 24 hr Dox Inducible IL2FLGluc 293FRT/TO: IL2/PD1 [5, 10] | 24 hr Dox Inducible TNFaFLGluc 293FRT/TO: TNF/PD1 ([9]; ratio of TNFaFLGluc IC50 to PD1ssGluc IC50, '<=>' given where both are I.A.)
1 | CC(CC#N)Cn1cccc1C(=O)Nc1nc([C@H]2CCCN2c2ccccc2)cs1 (stereo partly drawn) [Compound C20, 1-(3-cyano-2-methylpropyl)-N-(4-((R)-1-phenylpyrrolidin-2-yl)thiazol-2-yl)-1H-pyrrole-2-carboxamide] | 15% | – | 4.75% | 15.3% | – | – | 10.6% | – | – | – | – | – | – | – | –
2 | O=C(Nc1nc([C@H]2CCCN2c2ccccc2)cs1)c1cccn1CC1CCC(F)(F)CC1 [Compound C21, (R)-1-((4,4-difluorocyclohexyl)methyl)-N-(4-(1-phenylpyrrolidin-2-yl)thiazol-2-yl)-1H-pyrrole-2-carboxamide] | 49% | > 25 µM | 60.5% | 64% | – | > 25 µM | 12.2% | – | > 25 µM | > 25 µM | – | – | – | – | –
3 | O=C(Nc1nc([C@H]2CCCN2c2ccccc2)cs1)c1cccn1CCCc1c[nH]nn1 [Compound C27, (R)-1-(3-(1H-1,2,3-triazol-5-yl)propyl)-N-(4-(1-phenylpyrrolidin-2-yl)thiazol-2-yl)-1H-pyrrole-2-carboxamide] | 3.74% | 23.9 µM | 4.86% | 3.25% | – | > 25 µM | 1.26% | – | 2.63 µM | 0.671 µM | – | – | – | 3.9 | –
4 | CO[C@@H](CC#N)Cn1cccc1C(=O)Nc1nc([C@H]2CCCN2c2ccccc2)cs1 [Compound C97, 1-((S)-3-cyano-2-methoxypropyl)-N-(4-((R)-1-phenylpyrrolidin-2-yl)thiazol-2-yl)-1H-pyrrole-2-carboxamide] | – | 25 µM | 3.9% and 3.33% | 4.81% and 6.52% | – | > 25 µM | 5.97% and 7.43% | – | – | 3 µM and 4.65 µM | 23.6 µM | > 25 µM | – | 2.1 and > 3.6 | > 8.34 and > 5.37
5 | O=C(NC/C=C/c1csc(NC(=O)c2cccn2Cc2ccncc2)n1)c1ccccc1 [Compound E54, (E)-N-(4-(3-benzamidoprop-1-en-1-yl)thiazol-2-yl)-1-(pyridin-4-ylmethyl)-1H-pyrrole-2-carboxamide] | 0.17% | – | 1.05% | 0.37% | – | – | 6.61% | – | – | – | – | – | – | – | –
6 | CC(C)c1cccnc1/C=C/c1csc(NC(=O)c2cccn2Cc2ccncc2)n1 [Compound E56, (E)-N-(4-(2-(3-isopropylpyridin-2-yl)vinyl)thiazol-2-yl)-1-(pyridin-4-ylmethyl)-1H-pyrrole-2-carboxamide] | – | 21.5 µM | – | – | – | > 25 µM | – | – | 4.36 µM | 0.0916 µM | – | – | – | 48 | –
7 | CC(C)c1ccc(/C=C/c2csc(NC(=O)c3cccn3Cc3ccncc3)n2)nc1 [Compound E57, (E)-N-(4-(2-(5-isopropylpyridin-2-yl)vinyl)thiazol-2-yl)-1-(pyridin-4-ylmethyl)-1H-pyrrole-2-carboxamide] | – | 6.9 µM | – | – | – | 9.51 µM | – | – | 2.16 µM | 0.00967 µM | – | – | – | 220 | –

The next lines start with results.

Row | Liver Microsome Stability (Multiple Species): Monkey - % Remaining after 30 min w/NADPH [1] | EC50 ([2]; Homo sapiens, NCI-H929, 48 h) | Liver Microsome Stability (Multiple Species): Mouse - % Remaining after 30 min w/NADPH [3] | Liver Microsome Stability (Multiple Species): Human - % Remaining after 30 min w/NADPH [4] | IC50 [5] | EC50 [6] | Liver Microsome Stability (Multiple Species): Rat - % Remaining after 30 min w/NADPH [7] | IC50 [8] | IC50 ([5]; mean) | IC50 ([8]; mean) | EC50 ([2]; 48 hr) | IC50 ([9]; 24 hr Dox induction, 293FRT/TO cells, mean, read-out: 24 hr Dox Inducible TNFaFLGluc 293FRT/TO: Mean IC50) | Compound | 24 hr Dox Inducible IL2FLGluc 293FRT/TO: IL2/PD1 [5] | 24 hr Dox Inducible IL2FLGluc 293FRT/TO: IL2/PD1 [5, 10] | 24 hr Dox Inducible TNFaFLGluc 293FRT/TO: TNF/PD1 ([9]; ratio of TNFaFLGluc IC50 to PD1ssGluc IC50, '<=>' given where both are I.A.)
8 | 0.23% | 0.519 µM | 19.8% | 0.71% | 0.0171 µM | > 25 µM | 0.8% | 0.00722 µM | – | – | – | – | O=C(Nc1nc([C@H]2CCCN2c2ccc(-c3ncco3)cc2)cs1)c1cccn1Cc1ccncc1 [Compound A9, (R)-N-(4-(1-(4-(oxazol-2-yl)phenyl)pyrrolidin-2-yl)thiazol-2-yl)-1-(pyridin-4-ylmethyl)-1H-pyrrole-2-carboxamide] | 2.4 | – | –
9 | 0.39% | > 25 µM | 6.8% | 1.91% | > 25 µM | > 25 µM | 5.37% | 20.7 µM | – | – | – | – | O=C(O)c1ccc(N2CCC[C@@H]2c2csc(NC(=O)c3cccn3Cc3ccncc3)n2)cc1 [Compound A13] | >1.2 | – | –
10 | 110% | > 25 µM | 196% | – | > 25 µM | > 25 µM | 137% | 3.99 µM | – | – | – | – | CC1=NC(C)(/C=C/c2csc(NC(=O)c3cccn3Cc3ccncc3)n2)CO1 (centres unmarked) [Compound B16] | >6.3 | – | –
11 | – | 0.762 µM | – | – | – | > 25 µM | – | – | 0.0229 µM | 0.00953 µM | – | – | O=C(Nc1nc([C@H]2CCCN2c2ccccc2)cs1)c1cccn1Cc1ccnc(F)c1 [Compound E26, (R)-1-((2-fluoropyridin-4-yl)methyl)-N-(4-(1-phenylpyrrolidin-2-yl)thiazol-2-yl)-1H-pyrrole-2-carboxamide] | – | 2.4 | –
12 | 0.09% | – | 1.59% | 0.09% | – | – | 1.92% | – | – | – | – | – | O=C(Nc1nc([C@H]2CCCN2C2COC2)cs1)c1cccn1Cc1ccncc1 [Compound E49, (R)-N-(4-(1-(oxetan-3-yl)pyrrolidin-2-yl)thiazol-2-yl)-1-(pyridin-4-ylmethyl)-1H-pyrrole-2-carboxamide] | – | – | –

— US20230286973A1, “PROTEIN SECRETION INHIBITORS” (KEZAR LIFE SCIENCES, priority 2020, published 2023)
